Experimental data reported in patent US9622990B2, “Method for inhibiting cancer cell growth” (priority 2013, dated 2017).
≈ marks a conversion by molar mass, not a printed value.

How the values were obtained:
Assay type in all cases: cell-based
[1] = test system: CT26 cell line (colon cancer); assay: MTT cell viability assay, CT26; conditions: Mus musculus, 48 hours, read-out: half maximal inhibitory concentration (IC50), CT26
Method: (§1) Cell proliferation of A549 cell line (lung cancer), CT26 cell line (colon cancer), DU145 cell line (prostate cancer), HepG2 cell line (liver cancer), MDCK cell line (kidney from canine), PC3 cell line (prostate cancer), MDA-MB-231 cell line (breast cancer) and MCF-7 cell line (breast cancer) was assessed by MTT cell viability assay.
(§2) Above cell lines were cultured in determined medium for 24 hours. Proliferative cells were washed with PBS solution, treated with trypsin-EDTA (1×), centrifuged at 1,200 rpm for 5 min, precipitated the cells and discarded supernatant. The cells were resuspended with 10 ml of fresh medium, and then loaded to 96-well plate. While the assay initiated, 0.01˜200 μg/ml of Antrodia camphorata extract was added in each well, and the plate was incubated for 48 hours, at 37° C., 5% CO2. Each wall was added with 2.5 mg/ml MTT reagent in the dark. After 4 hours of reaction, 100 μl lysis buffer were added to each wall to terminate the reaction. […] The experiment data was represented by means±SD. All data was statistically analyzed by paired-t test, and a P-value less than 0.05 was considered significant.

[2] = test system: MDA-MB-231 cell line (breast cancer); assay: MTT cell viability assay, MDA-MB-231; conditions: Homo sapiens; MDA-MB-231, MTT, 48 hours; read-out: half maximal inhibitory concentration (IC50), MDA-MB-231
Method: as §1, §2

[3] = test system: various tumor cells; assay: MTT cell viability assay, statements over all cell lines; conditions: for anti cancer activity, in words: summary of table 9
Method: as §1, §2
The symbols used in tables respectively represent: 0˜25% cell viability: +/−; 25˜50% cell viability: +; 50˜75% cell viability: ++, 75˜100% cell viability: +++, >100% cell viability: ++++. […] In this experiment, when the drug concentration was diluted to […], DMSO concentration was 0.5%.
Accordingly, above extracts can be used for treating cancers, such as lung cancer, colon cancer, prostate cancer, liver cancer and breast cancer, and the effective compounds contained in those extracts also can be purified.
The half maximal inhibitory concentration (IC50) is a measure of the effectiveness of a compound in inhibiting biological or biochemical function. This quantitative measure indicates how much of a particular drug or other substance (inhibitor) is needed to inhibit a given biological process (e.g. cell apoptosis-inducing activity of a compound) by half. […]

[4] = test system: HepG2 cell line (liver cancer); assay: MTT cell viability assay, HepG2; conditions: Homo sapiens, 48 hours, read-out: half maximal inhibitory concentration (IC50), HepG2
Method: as §1, §2

[5] = test system: MDCK cell line (kidney from canine); assay: MTT cell viability assay, MDCK; conditions: Canis lupus familiaris, 48 hours, read-out: half maximal inhibitory concentration (IC50), MDCK
Method: as §1, §2

[6] = test system: A549 cell line (lung cancer); assay: MTT cell viability assay, A549; conditions: Homo sapiens, 48 hours, read-out: half maximal inhibitory concentration (IC50), A549
Method: as §1, §2

[7] = test system: DU145 cell line (prostate cancer); assay: MTT cell viability assay, DU145; conditions: Homo sapiens; DU-145, MTT, 48 hours; read-out: half maximal inhibitory concentration (IC50), DU-145
Method: as §1, §2

[8] = test system: PC3 cell line (prostate cancer); assay: MTT cell viability assay, PC3; conditions: Homo sapiens, PC-3, 48 hours, read-out: half maximal inhibitory concentration (IC50), PC3
Method: as §1, §2

[9] = test system: MCF-7 cell line (breast cancer); assay: MTT cell viability assay, MCF-7; conditions: Homo sapiens, MCF7; MCF-7, MTT, 48 hours; read-out: half maximal inhibitory concentration (IC50), MCF-7
Method: as §1, §2

Compound: COC1=C(OC)[C@H](O)[C@H](C/C=C(\C)CC/C=C(\C)CC(O)C=C(C)C)[C@@H](C)C1=O (stereo partly shown) [Antrocamol LT1, 4-hydroxy-5-[9-hydroxy-3,7,11-trimethyldodeca-2,6,10-trienyl]-2,3-dimethoxy-6-methyl-cyclohex-2-enone]
- IC50 [1]: 0.07 ± 0.006 µg/mL (≈ 0.172 µM)
- IC50 [2]: 0.98 ± 0.05 µg/mL (≈ 2.41 µM)
- anti cancer activity, in words [3]: predominant anti cancer activity
- IC50 [4]: 0.014 ± 0.001 µg/mL (≈ 0.0344 µM)
- IC50 [5]: > 10 µg/mL
- IC50 [6]: 0.093 ± 0.003 µg/mL (≈ 0.229 µM)
- IC50 [7]: 0.057 ± 0.009 µg/mL (≈ 0.14 µM)
- IC50 [8]: 0.057 ± 0.002 µg/mL (≈ 0.14 µM)
- IC50 [9]: 0.99 ± 0.08 µg/mL (≈ 2.44 µM)

Compound: COC1=C(OC)[C@H](OC(C)=O)[C@H](C/C=C(\C)CC/C=C(\C)CC(O)C=C(C)C)[C@@H](C)C1=O (stereo partly shown) [Antrocamol LT2, 4-acetoxy-5-[9-hydroxy-3,7,11-trimethyldodeca-2,6,10-trienyl]-2,3-dimethoxy-6-methyl-cyclohex-2-enone]
- IC50 [1]: 0.8 ± 0.03 µg/mL (≈ 1.78 µM)
- IC50 [2]: 1.03 ± 0.05 µg/mL (≈ 2.3 µM)
- anti cancer activity, in words [3]: predominant anti cancer activity
- IC50 [4]: 0.59 ± 0.02 µg/mL (≈ 1.32 µM)
- IC50 [5]: > 10 µg/mL
- IC50 [6]: 1.06 ± 0.22 µg/mL (≈ 2.36 µM)
- IC50 [7]: 0.91 ± 0.08 µg/mL (≈ 2.03 µM)
- IC50 [8]: 0.69 ± 0.06 µg/mL (≈ 1.54 µM)
- IC50 [9]: 0.95 ± 0.11 µg/mL (≈ 2.12 µM)

Compound: C[S+](C)[O-] [DMSO]
- IC50 value of the solvent (50% cell death) ([3]; DMSO content of the diluted drug, cell line not stated): 2.34%
